#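 1) Cells in 96-well plates. 2) Compound, 48 h, 5 concentrations. 3) Linear interpolation between surrounding doses. 4) Unreached endpoint = highest concentration. GI50 is the concentration that inhibits growth by half. Definition used: TGI = concentration required for complete inhibition of growth.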
# What was measured:
# Test in all cases: DTP human tumour cell line panel, 48 h
# [1] = test system: SF-539 CNS
# [2] = test system: DU-145 prostate
# [3] = test system: NCI-H226 lung
# [4] = test system: SN12C renal
# [5] = test system: HT29 colon
# [6] = test system: MCF7 breast
# [7] = test system: HOP-62 NSCLC
# [8] = test system: BT-549 breast
# [9] = test system: SK-MEL-5 melanoma
# [10] = test system: OVCAR-8 ovarian
Structure (SMILES),GI50 [1] [µM],TGI [1] [µM],GI50 [2] [µM],TGI [2] [µM],GI50 [3] [µM],TGI [3] [µM],GI50 [4] [µM],TGI [4] [µM],GI50 [5] [nM],TGI [5] [µM],GI50 [6] [µM],TGI [6] [µM],GI50 [7] [µM],TGI [7] [µM],GI50 [8] [µM],TGI [8] [µM],GI50 [9] [µM],TGI [9] [µM],GI50 [10] [µM],TGI [10] [µM]
COc1cc(/C=C2\CC3C4CC=C5CC(N6CCCC6)CC[C@]5(C)C4CC[C@]3(C)C2OC(C)=O)ccc1OCCN1CCCC1 (stereo partly specified),1.92,3.5,3.52,> 100,3.19,10.1,4.01,15.7,1820,4.39,1.62,3.17,19.7,34.6,16.6,31.4,,,,
C[C@H]1CCC/C=C/[C@@H]2C[C@H](N)C[C@H]2[C@H](O)/C=C/C(=O)O1,> 100,> 100,> 100,> 100,> 100,> 100,> 100,> 100,> 100000,> 100,> 100,> 100,> 100,> 100,,,77.1,> 100,> 100,> 100
Cc1c(C(=O)NN)nnn1-c1ccnc2c(C(F)(F)F)cccc12,> 100,> 100,> 100,> 100,> 100,> 100,76.5,> 100,,,> 100,> 100,> 100,> 100,> 100,> 100,> 100,> 100,> 100,> 100
CNC(=O)c1cc(Oc2ccc(NC(=O)Nc3ccc(Cl)c(OC(F)(F)F)c3)c(F)c2)ccn1,3.38,8.13,4.24,> 33.2,2.5,21.4,2.05,23,1170,13.5,1.12,7.17,2.49,29.3,3.17,14,1.63,5.46,,
Cn1c(N)nc2c(nc(OCc3ccccc3)n2C2OC(CO)C(O)C2O)c1=O (stereo unspecified),,,,> 100,,> 100,,> 100,,> 100,,> 100,,> 100,,,,> 100,,> 100
NC(N)=N/N=C/c1c(-c2ccccn2)nc2sc(Cl)cn12,1.54,3.49,7.68,14.4,,,6.84,13.3,,,13.2,50,9.58,17.5,8.25,15.2,8.47,15.4,6.32,13.5
CN(C)c1nc(-c2cccs2)n2nc(-c3ccc(Cl)cc3)cc2n1,25.5,> 100,> 100,> 100,2.73,> 100,> 100,> 100,,,> 100,> 100,2.27,6.53,62.8,> 100,,,3.59,> 100
Cc1ccc(-c2nc(C(Cl)Cl)n3nc(-c4ccccc4)cc3n2)cc1,,,,,> 100,> 100,> 100,> 100,1100,> 56.2,,,0.566,3.15,> 100,> 100,> 100,> 100,0.512,> 100
NC(CCSCC(F)F)C(=O)O (stereo unspecified),,> 100,,,,> 100,,> 100,,> 100,,,,> 100,,,,> 100,,> 100
Nc1ccc(SC23CC4CC(CC(C4)C2)C3)cc1,,> 100,,> 100,,,,> 100,,> 100,,> 100,,> 100,,> 100,,> 100,,> 100
CCCS(=O)(=O)c1nc(NC2CC2)cc(-c2ccc3c(ccn3C3CC(C)(C)NC(C)(C)C3)c2)n1,,,1.71,3.19,1.74,3.71,1.88,3.8,1810,3.38,,,1.73,3.4,,,1.72,3.15,,
CCCCCC(C(O)C#N)C(O)(C(F)(F)F)C(F)(F)F (stereo unspecified),,> 10,,> 10,,,,> 10,,> 10,,> 10,,> 10,,> 10,,> 10,,> 10
Cc1ncc([N+](=O)[O-])n1CCNC(=O)CCCCn1ccnc1[N+](=O)[O-],,> 100,,,,> 100,,> 100,,> 100,,> 100,,> 100,,> 100,,> 100,,> 100
Cc1ccc(C(=O)CC(Sc2cccc(Cl)c2Cl)c2ccc(Cl)cc2)cc1C (stereo unspecified),22.8,53.6,16.1,34.9,20.5,37.4,16.1,32.7,,,15.9,36.1,24.2,60.6,24.5,46.9,16.6,33,24.6,74
Oc1c(Br)cc(CN(Cc2cc(Br)c(O)c(Br)c2)C2CCCCC2)cc1Br,,,,> 100,,> 100,,> 100,,> 100,,> 100,,> 100,,> 100,,> 100,,> 100
CCOC(=O)[C@@H](C)C[C@H](Cc1ccccc1)NC(=O)c1csc([C@@H](C[C@H](C(C)C)N(C)C(=O)[C@@H](NC(=O)[C@H]2CCCCN2C)C(C)(C)C)OC(C)=O)n1,< 0.00167,0.00437,,,< 0.00167,0.104,0.00307,> 16.7,< 1.67,> 7.52,< 0.00167,> 16.7,< 0.00167,> 16.7,< 0.00167,0.00961,< 0.00167,0.00254,< 0.00167,> 16.7
O=C1CCn2c([nH]c3cccc4cccc2c43)=N1,,> 100,,,,> 100,,> 100,,> 100,,,,> 100,,,,> 100,,> 100
CCOC(=O)Cc1nc(/C(C#N)=C/c2ccco2)[nH]c(=O)c1C#N,,> 100,,,,> 100,,> 100,,> 100,,,,> 100,,,,> 100,,> 100
COC(=O)c1c(O)ccc2[nH]c(C)c(C#N)c12,,,> 100,> 100,28.5,70.6,49,> 100,60300,> 100,46.3,> 100,22.7,81,64,> 100,24.3,> 100,43.2,> 100
FC(F)(F)c1ccc2c(Nc3cccc(C4CC(c5ccccc5)=NN4c4ccc(Cl)cc4)c3)ccnc2c1 (stereo unspecified),4.78,19.5,3.61,15.4,15,36.2,2.96,14.6,3300,12.5,1.67,10.6,,,2.29,7.4,8.77,26.5,3.57,19.7
Cc1ccc2/c(=C/c3ccc(N(C)C)cc3)c3cc(-c4ccccc4)[n+](C)n3c2c1,0.0456,2.21,0.0473,4.37,,,,,41.1,> 100,0.036,11.3,0.257,7.33,,,0.0344,0.169,,
CC1CCCC(C(=O)/C(=C/c2cccc(Cl)c2)C(=O)C(=O)O)C1 (stereo unspecified),,64.9,,,,> 100,,> 100,,38.1,,,,> 100,,,,> 100,,40
Oc1c2c(c(O)c3ccccc13)=N[C@@H](c1ccccc1)[C@H](c1ccccc1)N=2,,> 100,,,,> 100,,> 100,,> 100,,,,> 100,,,,> 100,,> 100
COc1cc(/C=C\c2ccc(O)cc2)cc(OC)c1OC,,> 100,,,,> 100,,> 53.6,,> 100,,,,> 100,,,,18.6,,> 100
COc1ccc(-c2cc(-c3cc(Cl)ccc3Cl)nc3nc(=S)[nH]c(N)c23)cc1,27,82.9,48.8,> 100,,,19.1,65.7,37800,> 100,20.1,> 100,14.9,28.3,54.9,> 100,18.2,94.6,,
O=c1c2ccccc2c2c3c1cccc3c1cccc3c(=O)c4ccccc4c2c31,,> 100,,,,> 100,,> 100,,> 100,,,,> 100,,,,> 100,,> 100

# — PubChem BioAssay (NCI)
